# Results reported in PubChem BioAssay (NCI).
#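 Compound exposure: 48 hours, 5 concentrations, 96-well plates. At the GI50, growth is halved. At the TGI there is no net growth.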
# Columns and labels:
# Test in all cases: NCI tumour cell line growth inhibition, 48 h
# 786-0 renal = test system: 786-0 renal
# A498 renal = test system: A498 renal
# A549 NSCLC = test system: A549 NSCLC
# ACHN renal = test system: ACHN renal
# BT-549 breast = test system: BT-549 breast
# CAKI-1 renal = test system: CAKI-1 renal
# CCRF-CEM leukemia = test system: CCRF-CEM leukemia
# COLO 205 colon = test system: COLO 205 colon
# DU-145 prostate = test system: DU-145 prostate
# EKVX NSCLC = test system: EKVX NSCLC
# HCC-2998 colon = test system: HCC-2998 colon
# HCT-116 colon = test system: HCT-116 colon
# HCT-15 colon = test system: HCT-15 colon
# HL-60(TB) leukemia = test system: HL-60(TB) leukemia
# HOP-62 NSCLC = test system: HOP-62 NSCLC
# HOP-92 NSCLC = test system: HOP-92 NSCLC
# HS 578T breast = test system: HS 578T breast
# HT29 colon = test system: HT29 colon
# IGROV1 ovarian = test system: IGROV1 ovarian
# K-562 leukemia = test system: K-562 leukemia
# KM12 colon = test system: KM12 colon
# LOX IMVI melanoma = test system: LOX IMVI melanoma
# M14 melanoma = test system: M14 melanoma
# MALME-3M melanoma = test system: MALME-3M melanoma
# MCF7 breast = test system: MCF7 breast
# MDA-MB-231 breast = test system: MDA-MB-231 breast
# MDA-MB-435 = test system: MDA-MB-435
# MDA-MB-468 breast = test system: MDA-MB-468 breast
# MOLT-4 leukemia = test system: MOLT-4 leukemia
# NCI-H226 lung = test system: NCI-H226 lung
# NCI-H23 lung = test system: NCI-H23 lung
# NCI-H460 lung = test system: NCI-H460 lung
# NCI-H522 lung = test system: NCI-H522 lung
# NCI/ADR-RES ovarian = test system: NCI/ADR-RES ovarian
# OVCAR-3 ovarian = test system: OVCAR-3 ovarian
# OVCAR-4 ovarian = test system: OVCAR-4 ovarian
# OVCAR-5 ovarian = test system: OVCAR-5 ovarian
# OVCAR-8 ovarian = test system: OVCAR-8 ovarian
# PC-3 prostate = test system: PC-3 prostate
# RPMI-8226 leukemia = test system: RPMI-8226 leukemia
# RXF 393 renal = test system: RXF 393 renal
# SF-268 CNS = test system: SF-268 CNS
# SF-295 CNS = test system: SF-295 CNS
# SF-539 CNS = test system: SF-539 CNS
# SK-MEL-2 melanoma = test system: SK-MEL-2 melanoma
# SK-MEL-28 melanoma = test system: SK-MEL-28 melanoma
# SK-MEL-5 melanoma = test system: SK-MEL-5 melanoma
# SK-OV-3 ovarian = test system: SK-OV-3 ovarian
# SN12C renal = test system: SN12C renal
# SNB-19 CNS = test system: SNB-19 CNS
# SNB-75 CNS = test system: SNB-75 CNS
# SR leukemia = test system: SR leukemia
# SW-620 colon = test system: SW-620 colon
# T-47D breast = test system: T-47D breast
# TK-10 renal = test system: TK-10 renal
# U251 CNS = test system: U251 CNS
# UACC-257 melanoma = test system: UACC-257 melanoma
# UACC-62 melanoma = test system: UACC-62 melanoma
# UO-31 renal = test system: UO-31 renal
smiles,measurement,setting,value
O=C(CNc1nc(-c2ccccc2)cs1)Nc1ccc(Cl)cc1[N+](=O)[O-],GI50,786-0 renal,3.75 µM
same,TGI,786-0 renal,14.2 µM
same,GI50,A498 renal,7.9 µM
same,TGI,A498 renal,20.4 µM
same,GI50,A549 NSCLC,3.93 µM
same,TGI,A549 NSCLC,14.5 µM
same,GI50,ACHN renal,2.77 µM
same,TGI,ACHN renal,10.5 µM
same,GI50,BT-549 breast,2.84 µM
same,TGI,BT-549 breast,5.89 µM
same,GI50,CAKI-1 renal,1.85 µM
same,TGI,CAKI-1 renal,9.85 µM
same,GI50,CCRF-CEM leukemia,3.29 µM
same,TGI,CCRF-CEM leukemia,> 100 µM
same,GI50,COLO 205 colon,2.61 µM
same,TGI,COLO 205 colon,5.91 µM
same,GI50,DU-145 prostate,4.78 µM
same,TGI,DU-145 prostate,18.7 µM
same,GI50,EKVX NSCLC,1.82 µM
same,TGI,EKVX NSCLC,9.71 µM
same,GI50,HCC-2998 colon,2.71 µM
same,TGI,HCC-2998 colon,10.2 µM
same,GI50,HCT-116 colon,2.95 µM
same,TGI,HCT-116 colon,10.2 µM
same,GI50,HCT-15 colon,1.98 µM
same,TGI,HCT-15 colon,4.53 µM
same,GI50,HL-60(TB) leukemia,2.03 µM
same,TGI,HL-60(TB) leukemia,6.56 µM
same,GI50,HOP-62 NSCLC,4.23 µM
same,TGI,HOP-62 NSCLC,17.3 µM
same,GI50,HOP-92 NSCLC,1.99 µM
same,TGI,HOP-92 NSCLC,8.19 µM
same,GI50,HS 578T breast,2.39 µM
same,TGI,HS 578T breast,9.58 µM
same,GI50,HT29 colon,3.79 µM
same,TGI,HT29 colon,14.4 µM
same,GI50,IGROV1 ovarian,2.9 µM
same,TGI,IGROV1 ovarian,12.1 µM
same,GI50,K-562 leukemia,2.49 µM
same,TGI,K-562 leukemia,> 100 µM
same,GI50,KM12 colon,3.36 µM
same,TGI,KM12 colon,13 µM
same,GI50,LOX IMVI melanoma,1.32 µM
same,TGI,LOX IMVI melanoma,2.88 µM
same,GI50,M14 melanoma,3.4 µM
same,TGI,M14 melanoma,12.7 µM
same,GI50,MALME-3M melanoma,2.21 µM
same,TGI,MALME-3M melanoma,5.51 µM
same,GI50,MCF7 breast,2.84 µM
same,TGI,MCF7 breast,10.3 µM
same,GI50,MDA-MB-231 breast,1.63 µM
same,TGI,MDA-MB-231 breast,3.54 µM
same,GI50,MDA-MB-435,3.25 µM
same,TGI,MDA-MB-435,9.42 µM
same,GI50,MDA-MB-468 breast,2.02 µM
same,TGI,MDA-MB-468 breast,5.69 µM
same,GI50,MOLT-4 leukemia,2.49 µM
same,TGI,MOLT-4 leukemia,13.9 µM
same,GI50,NCI-H226 lung,2.64 µM
same,TGI,NCI-H226 lung,13 µM
same,GI50,NCI-H23 lung,3.08 µM
same,TGI,NCI-H23 lung,12.6 µM
same,GI50,NCI-H460 lung,4.18 µM
same,TGI,NCI-H460 lung,17.5 µM
same,GI50,NCI-H522 lung,1.8 µM
same,TGI,NCI-H522 lung,3.95 µM
same,GI50,NCI/ADR-RES ovarian,2.31 µM
same,TGI,NCI/ADR-RES ovarian,6.53 µM
same,GI50,OVCAR-3 ovarian,2.36 µM
same,TGI,OVCAR-3 ovarian,5.72 µM
same,GI50,OVCAR-4 ovarian,3.26 µM
same,TGI,OVCAR-4 ovarian,13 µM
same,GI50,OVCAR-5 ovarian,2.49 µM
same,TGI,OVCAR-5 ovarian,8.24 µM
same,GI50,OVCAR-8 ovarian,3.25 µM
same,TGI,OVCAR-8 ovarian,13.1 µM
same,GI50,PC-3 prostate,2.78 µM
same,TGI,PC-3 prostate,16.2 µM
same,GI50,RPMI-8226 leukemia,2.67 µM
same,TGI,RPMI-8226 leukemia,> 100 µM
same,GI50,RXF 393 renal,1.99 µM
same,TGI,RXF 393 renal,6.5 µM
same,GI50,SF-268 CNS,2.1 µM
same,TGI,SF-268 CNS,7.08 µM
same,GI50,SF-295 CNS,2.71 µM
same,TGI,SF-295 CNS,11.1 µM
same,GI50,SF-539 CNS,1.84 µM
same,TGI,SF-539 CNS,4.05 µM
same,GI50,SK-MEL-2 melanoma,3.04 µM
same,TGI,SK-MEL-2 melanoma,9.74 µM
same,GI50,SK-MEL-28 melanoma,2.9 µM
same,TGI,SK-MEL-28 melanoma,8.79 µM
same,GI50,SK-MEL-5 melanoma,1.93 µM
same,TGI,SK-MEL-5 melanoma,4.26 µM
same,GI50,SK-OV-3 ovarian,4.65 µM
same,TGI,SK-OV-3 ovarian,19 µM
same,GI50,SN12C renal,2.81 µM
same,TGI,SN12C renal,10.7 µM
same,GI50,SNB-19 CNS,3.78 µM
same,TGI,SNB-19 CNS,15 µM
same,GI50,SNB-75 CNS,1.24 µM
same,TGI,SNB-75 CNS,7.02 µM
same,GI50,SR leukemia,3.75 µM
same,TGI,SR leukemia,> 100 µM
same,GI50,SW-620 colon,4.1 µM
same,TGI,SW-620 colon,14.4 µM
same,GI50,T-47D breast,2.46 µM
same,TGI,T-47D breast,8.61 µM
same,GI50,TK-10 renal,6.12 µM
same,TGI,TK-10 renal,17.9 µM
same,GI50,U251 CNS,2.06 µM
same,TGI,U251 CNS,6.56 µM
same,GI50,UACC-257 melanoma,5.13 µM
same,TGI,UACC-257 melanoma,17 µM
same,GI50,UACC-62 melanoma,1.33 µM
same,TGI,UACC-62 melanoma,3.25 µM
same,GI50,UO-31 renal,1.62 µM
same,TGI,UO-31 renal,6.97 µM
